Laboratory results reported in the supplement of paper PMC11414989.

Columns and labels:
Settings in all cases: exposure window: 6 hpf to 120 hpf, static, assay age: 120 hpf (5 dpf)
[1] = system: Danio rerio larvae (Tropical 5D); assay: mean distance moved of exposed larvae, dark phase (µm per frame (1/25 s)); higher = more movement
Experimental: (§1)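 Larval photomotor response in Tropical 5D wild-type zebrafish. Larvae were statically exposed to each chemical from 6 hpf to 5 dpf in 96-well plates; morphologically abnormal larvae were excluded. At 120 hpf, larvae were tracked with Ethovision XT (25 frames/s) over the 2nd cycle of 3 min light and 3 min dark. Values are the mean movement metric of exposed larvae per phase; same-plate control means (plate-dependent baseline) are given as conditions.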

[2] = system: Danio rerio larvae (Tropical 5D); assay: mean distance moved of exposed larvae, light phase (µm per frame (1/25 s)); higher = more movement
Experimental: as §1

[3] = system: Danio rerio larvae (Tropical 5D); assay: mean angular velocity of exposed larvae, dark phase (angular velocity (unit not stated)); higher = more movement
Experimental: as §1

[4] = system: Danio rerio larvae (Tropical 5D); assay: mean angular velocity of exposed larvae, light phase (angular velocity (unit not stated)); higher = more movement
Experimental: as §1

O=C(O)C(F)(F)C(F)(F)C(F)(F)C(F)(F)C(F)(F)C(F)(F)C(F)(F)C(F)(F)C(F)(F)C(F)(F)C(F)(F)C(F)(F)C(F)(F)C(F)(F)C(F)(F)C(F)(F)C(F)(F)F [Perfluoro-n-octadecanoic acid]
mean distance moved of exposed larvae ([1]; 0.25 µM): 10.3
mean distance moved of exposed larvae ([2]; 0.25 µM): 3.51
mean angular velocity of exposed larvae ([3]; 0.25 µM): 0.571
mean angular velocity of exposed larvae ([4]; 0.25 µM): 0.146

O=P(O)(O)C(F)(F)C(F)(F)C(F)(F)C(F)(F)C(F)(F)C(F)(F)C(F)(F)C(F)(F)C(F)(F)C(F)(F)F [Perfluorodecylphosphonic acid]
mean distance moved of exposed larvae ([1]; 0.25 µM): 9.21
mean distance moved of exposed larvae ([2]; 0.25 µM): 1.45
mean angular velocity of exposed larvae ([3]; 0.25 µM): 0.34
mean angular velocity of exposed larvae ([4]; 0.25 µM): 0.0471

O=S(=O)(O)C(F)(F)C(F)(F)C(F)(F)C(F)(F)C(F)(F)C(F)(F)F [Perfluorohexanesulfonic acid]
mean distance moved of exposed larvae ([1]; 0.015 µM): 11.6
mean distance moved of exposed larvae ([1]; 0.046 µM): 20.4
mean distance moved of exposed larvae ([1]; 0.14 µM): 13.8
mean distance moved of exposed larvae ([1]; 0.41 µM): 17.2
mean distance moved of exposed larvae ([1]; 1.23 µM): 23
mean distance moved of exposed larvae ([1]; 3.7 µM): 22.9
mean distance moved of exposed larvae ([1]; 11.1 µM): 25.2
mean distance moved of exposed larvae ([1]; 33.3 µM): 8.39
mean distance moved of exposed larvae ([1]; 66.5 µM): 3.78
mean distance moved of exposed larvae ([1]; 100 µM): 3.15
mean distance moved of exposed larvae ([2]; 0.015 µM): 2.17
mean distance moved of exposed larvae ([2]; 0.046 µM): 2.46
mean distance moved of exposed larvae ([2]; 0.14 µM): 1.98
mean distance moved of exposed larvae ([2]; 0.41 µM): 2.2
mean distance moved of exposed larvae ([2]; 1.23 µM): 3.86
mean distance moved of exposed larvae ([2]; 3.7 µM): 3.31
mean distance moved of exposed larvae ([2]; 11.1 µM): 4.59
mean distance moved of exposed larvae ([2]; 33.3 µM): 8.09
mean distance moved of exposed larvae ([2]; 66.5 µM): 3.27
mean distance moved of exposed larvae ([2]; 100 µM): 3.18
mean angular velocity of exposed larvae ([3]; 0.015 µM): 0.475
mean angular velocity of exposed larvae ([3]; 0.046 µM): 0.762
mean angular velocity of exposed larvae ([3]; 0.14 µM): 0.609
mean angular velocity of exposed larvae ([3]; 0.41 µM): 0.788
mean angular velocity of exposed larvae ([3]; 1.23 µM): 0.884
mean angular velocity of exposed larvae ([3]; 3.7 µM): 0.738
mean angular velocity of exposed larvae ([3]; 11.1 µM): 0.954
mean angular velocity of exposed larvae ([3]; 33.3 µM): 0.358
mean angular velocity of exposed larvae ([3]; 66.5 µM): 0.271
mean angular velocity of exposed larvae ([3]; 100 µM): 0.173
mean angular velocity of exposed larvae ([4]; 0.015 µM): 0.178
mean angular velocity of exposed larvae ([4]; 0.046 µM): 0.0902
mean angular velocity of exposed larvae ([4]; 0.14 µM): 0.121
mean angular velocity of exposed larvae ([4]; 0.41 µM): 0.123
mean angular velocity of exposed larvae ([4]; 1.23 µM): 0.25
mean angular velocity of exposed larvae ([4]; 3.7 µM): 0.171
mean angular velocity of exposed larvae ([4]; 11.1 µM): 0.153
mean angular velocity of exposed larvae ([4]; 33.3 µM): 0.351
mean angular velocity of exposed larvae ([4]; 66.5 µM): 0.241
mean angular velocity of exposed larvae ([4]; 100 µM): 0.114

O=P(O)(O)C(F)(F)C(F)(F)C(F)(F)C(F)(F)C(F)(F)C(F)(F)F [Perfluorohexylphosphonic acid]
mean distance moved of exposed larvae ([1]; 0.25 µM): 24.1
mean distance moved of exposed larvae ([2]; 0.25 µM): 5.18
mean angular velocity of exposed larvae ([3]; 0.25 µM): 0.788
mean angular velocity of exposed larvae ([4]; 0.25 µM): 0.148

O=P(O)(O)C(F)(F)C(F)(F)C(F)(F)C(F)(F)C(F)(F)C(F)(F)C(F)(F)C(F)(F)F [Perfluorooctylphosphonic acid]
mean distance moved of exposed larvae ([1]; 0.25 µM): 29.9
mean distance moved of exposed larvae ([2]; 0.25 µM): 10.3
mean angular velocity of exposed larvae ([3]; 0.25 µM): 0.959
mean angular velocity of exposed larvae ([4]; 0.25 µM): 0.308

O=S(=O)(O)C(F)(F)C(F)(F)C(F)(F)C(F)(F)F [Potassium perfluoro-1-butanesulfonate]
mean distance moved of exposed larvae ([1]; 0.25 µM): 30.9
mean distance moved of exposed larvae ([2]; 0.25 µM): 1.73
mean angular velocity of exposed larvae ([3]; 0.25 µM): 1.11
mean angular velocity of exposed larvae ([4]; 0.25 µM): 0.0624

O=S(=O)(O)CCC(F)(F)C(F)(F)C(F)(F)C(F)(F)F [Sodium 1H,1H,2H,2H-perfluorohexane sulfonate(4:2)]
mean distance moved of exposed larvae ([1]; 0.25 µM): 44.7
mean distance moved of exposed larvae ([2]; 0.25 µM): 4.72
mean angular velocity of exposed larvae ([3]; 0.25 µM): 1.24
mean angular velocity of exposed larvae ([4]; 0.25 µM): 0.152

O=S(=O)(O)C(F)(F)C(F)(F)C(F)(F)C(F)(F)C(F)(F)C(F)(F)C(F)(F)C(F)(F)Cl [Sodium 8-chloroperfluoro-1-octanesulfonate]
mean distance moved of exposed larvae ([1]; 0.25 µM): 28.8
mean distance moved of exposed larvae ([2]; 0.25 µM): 2.63
mean angular velocity of exposed larvae ([3]; 0.25 µM): 0.945
mean angular velocity of exposed larvae ([4]; 0.25 µM): 0.0987

O=S(=O)(O)C(F)(F)C(F)(F)C(F)(F)C(F)(F)C(F)(F)F [Sodium Perfluoro-1-pentanesulfonate]
mean distance moved of exposed larvae ([1]; 0.25 µM): 34.7
mean distance moved of exposed larvae ([2]; 0.25 µM): 5.23
mean angular velocity of exposed larvae ([3]; 0.25 µM): 1.28
mean angular velocity of exposed larvae ([4]; 0.25 µM): 0.235

O=P(O)(C(F)(F)C(F)(F)C(F)(F)C(F)(F)C(F)(F)C(F)(F)F)C(F)(F)C(F)(F)C(F)(F)C(F)(F)C(F)(F)C(F)(F)F [Sodium bis(perfluorohexyl)phosphinate]
mean distance moved of exposed larvae ([1]; 0.25 µM): 14.2
mean distance moved of exposed larvae ([2]; 0.25 µM): 1.35
mean angular velocity of exposed larvae ([3]; 0.25 µM): 0.687
mean angular velocity of exposed larvae ([4]; 0.25 µM): 0.163

O=P(O)(C(F)(F)C(F)(F)C(F)(F)C(F)(F)C(F)(F)C(F)(F)C(F)(F)C(F)(F)F)C(F)(F)C(F)(F)C(F)(F)C(F)(F)C(F)(F)C(F)(F)C(F)(F)C(F)(F)F [Sodium bis(perfluorooctyl)phosphinate]
mean distance moved of exposed larvae ([1]; 0.25 µM): 15.1
mean distance moved of exposed larvae ([2]; 0.25 µM): 2.89
mean angular velocity of exposed larvae ([3]; 0.25 µM): 0.704
mean angular velocity of exposed larvae ([4]; 0.25 µM): 0.119

O=S(=O)(O)C(F)(F)C(F)(F)C(F)(F)C(F)(F)C(F)(F)C(F)(F)C(F)(F)C(F)(F)C(F)(F)C(F)(F)F [Sodium perfluoro-1-decanesulfonate]
mean distance moved of exposed larvae ([1]; 0.25 µM): 24.8
mean distance moved of exposed larvae ([2]; 0.25 µM): 6.8
mean angular velocity of exposed larvae ([3]; 0.25 µM): 0.897
mean angular velocity of exposed larvae ([4]; 0.25 µM): 0.372
